According to patent US9708286B2, “Ingenol-3-acylates III and ingenol-3-carbamates” (LEO Laboratories Limited, priority 2010, dated 2017):

Tests used:
Assay type in all cases: cell-based
[1] = tested on: Primary human epidermal keratinocytes, HeKa; test: HeKa cytokine release (IL-8); conditions: Homo sapiens, HEKa, 6 h, read-out: HeKa cytokine release (IL-8) Rel EC50 range
Experimental: Primary human epidermal keratinocytes, HeKa, were seeded (10.000 cells/well) in 96-well plates the day before the assay. Test compounds were diluted in DMSO (dimethyl sulfoxide) and further diluted in assay medium and pipetted into wells of 96 well-plates containing HeKa cells. The plates were incubated for 6 h at 37° C. in humidified air with 5% CO2. Plates were centrifuged briefly to spin down cells at 4° C., the supernatant was removed and analysed by Meso Scale Discovery (MSD) 4-spot cytokine assay (Pro-inflammatory II Ultra Sensitive kit, MSD, MD, USA). The MSD assay employs a sandwich immunoassay format where capture antibodies are coated in a patterned array on the bottom of the wells of a 4-Spot-Multi-MSD plate. Standard samples were incubated in the MULTI-SPOT plates as well, and the cytokine (IL-8) binds to its corresponding capture antibody spot. The cytokine level was quantitated on a SECTOR™ Imager using a cytokine-specific Detection Antibody labelled with MSD SULFO-TAG™ reagent.
(§1) Test compound titration curves were fitted to a four-parameter sigmoidal curve after normalizing the effect of the test compound to the effect of the positive control (1.5×10^−7 M PEP0005). Rel EC50 denotes the concentration of test compound producing an effect that is midway between the fitted top and bottom.

[2] = tested on: HeLa cells; test: Necrosis assay; conditions: Homo sapiens, HeLa, 0.5 h, read-out: HeLa necrosis EC50 range
Experimental: HeLa cells (ATCC CCL-002) were grown in minimal essential medium (Invitrogen catalog no. 42360) containing 10% fetal bovine serum, 100 IU/ml penicillin and 100 μg/ml streptomycin. 4,000-6,000 cells were seeded into 96-well black ViewPlates-plates, clear bottom, (Perkin Elmer) in 100 μl medium and incubated overnight. Compounds were dissolved and pre-diluted in DMSO in 96-well polypropylene plates (Greiner) in a concentration range of 15 μM to 600 μM. At the time of the experiment cell plates were placed on heating blocks at 37° C., medium was removed and 40 μl fresh, pre-warmed medium was added per well. Cells were incubated for 15 min before addition of compounds. In parallel, 3 μl of compounds were diluted with 197 μl growth medium on a Tecan freedom-EVO pipetting station using 250 μl/s pipetting speed, in order to ensure effective mixing of the highly concentrated compound solutions with the aqueous phase. These pre-dilution plates were then equilibrated on heating blocks at 37° C. for 10 min. 80 μl pre-diluted compound were transferred manually to the corresponding wells containing HeLa cells yielding compound concentrations of 10 μM to 400 μM. Control conditions were 1% DMSO in growth medium (100% viability) and 400 μM ingenol mebutate in growth medium (0% viability). Plates were incubated on the heating blocks at 37° C. for 30 min. At the end of the incubation 10 μl PrestoBlue reagent (Invitrogen) were added to each well, plates were sealed with black seal, followed by incubation at 37° C. for 10 min with gentle shaking (150 rpm). Subsequently, plates were placed at room temperature for 20-30 min. Plates were read immediately after on an Envision Fluorescence reader (Perkin Elmer) with excitation at 535 nm and emission at 630 nm. Test compound titration curves were fitted to a four-parameter sigmoidal curve after normalizing the effect of the test compound to the effect of the positive control (4 10^−4 M PEP0005/ingenol mebutate). AbsEC50 denotes the concentration of test compound producing 50% effect.

[3] = tested on: PMN's (polymorphonuclear leukocytes); test: Neutrophil oxidative burst; conditions: Leukocyte, 40 min, read-out: Neutrophil oxidative burst Rel EC50 range, PMN from buffy coats, 40 min at RT, hydroethidine fluorescence; normalized to 5×10^−7 M PEP0005
Experimental: PMN's (polymorphonuclear leukocytes) were isolated and purified from fresh buffy coats by sequential sedimentation, density centrifugation and lysis of contaminating erythrocytes. Buffy coats were incubated with 2% methocel for 30-45 min to differentially sediment red blood cells. The leukocyte-rich supernatant was transferred to lymphoprep tubes to remove mononuclear cells by density centrifugation (400×g, 30 min). The pellet was resuspended and any remaining erythrocytes lysed using 0.2% NaCl for 30 sec before restoring isotonicity by the addition of 1.2% NaCl. This step was repeated until the cell pellet appears relatively free of red blood cells. Cells were resuspended in DPBS (Dulbecco's Phosphate Buffered Saline) (w.o. Ca^2+, Mg^2+) and the concentration adjusted to 1.4×10^6 cells/ml in HBSS (Hanks Balanced Salt solution) (w Ca^2+, Mg^2±) containing 0.1% BSA (Bovine Serum Albumin) and 5 mM glucose just prior to assay initiation. Titrated reference and test compounds were pre-mixed with HE (Hydroethidine) (10 μM final assay concentration) before addition to 96-well plates containing 2.5×10^5 cells. Following 40 min incubation at RT, changes in the respiratory burst was estimated by measuring fluorescence at 579 nm (excitation: 485 nm) using an Envision plate reader.
as §1, with “(5×10^−7” for “(1.5×10^−7”, “bottom. Abs EC50 is the concentration of test compound that provokes a response corresponding to 50% of the maximal effect associated with the positive control (5×10^−7 M PEP0005).” for “bottom.”

CC1=C[C@]23C(=O)[C@@H](C=C(CO)[C@@H](O)[C@]2(O)[C@H]1OC(=O)c1c2ccccc2nn1C)[C@H]1[C@@H](C[C@H]3C)C1(C)C [Compound 548, Ingenol 3-(2-methylindazole-3-carboxylate)]
EC50 [1]: < 20 nM
EC50 [2]: 150000 to 350000 nM
EC50 [3]: 20 to 100 nM

CC1=C[C@]23C(=O)[C@@H](C=C(CO)[C@@H](O)[C@]2(O)[C@H]1OC(=O)c1ncsc1C)[C@H]1[C@@H](C[C@H]3C)C1(C)C [Compound 525, Ingenol 3-(5-methylthiazole-4-carboxylate)]
EC50 [1]: > 100 nM
EC50 [2]: > 350000 nM
EC50 [3]: 20 to 100 nM

CC1=C[C@]23C(=O)[C@@H](C=C(CO)[C@@H](O)[C@]2(O)[C@H]1OC(=O)N(C)c1ccc(Cl)cc1)[C@H]1[C@@H](C[C@H]3C)C1(C)C [Compound 729, Ingenol 3-(N-(4-chloro-phenyl)-N-methyl-carbamate)]
EC50 [1]: < 20 nM
EC50 [2]: 150000 to 350000 nM
EC50 [3]: < 20 nM

CC1=C[C@]23C(=O)[C@@H](C=C(CO)[C@@H](O)[C@]2(O)[C@H]1OC(=O)c1ncncc1Br)[C@H]1[C@@H](C[C@H]3C)C1(C)C [Compound 523, Ingenol 3-(5-bromopyrimidine-4-carboxylate)]
EC50 [1]: > 100 nM
EC50 [2]: > 350000 nM
EC50 [3]: 20 to 100 nM

CC1=C[C@]23C(=O)[C@@H](C=C(CO)[C@@H](O)[C@]2(O)[C@H]1OC(=O)c1nn(C)cc1Br)[C@H]1[C@@H](C[C@H]3C)C1(C)C [Compound 570, Ingenol 3-(4-bromo-1-methyl-pyrazole-3-carboxylate)]
EC50 [1]: > 100 nM
EC50 [2]: 150000 to 350000 nM
EC50 [3]: 20 to 100 nM

CC1=C[C@]23C(=O)[C@@H](C=C(CO)[C@@H](O)[C@]2(O)[C@H]1OC(=O)N(C)C1CCCC1)[C@H]1[C@@H](C[C@H]3C)C1(C)C [Compound 722, Ingenol 3-(N-cyclopentyl-N-methyl-carbamate)]
EC50 [1]: 20 to 100 nM
EC50 [2]: > 350000 nM
EC50 [3]: < 20 nM

CC1=C[C@]23C(=O)[C@@H](C=C(CO)[C@@H](O)[C@]2(O)[C@H]1OC(=O)c1c(C)c[nH]c1C)[C@H]1[C@@H](C[C@H]3C)C1(C)C [Compound 580, Ingenol 3-(2,4-dimethyl-1H-pyrrole-3-carboxylate)]
EC50 [1]: > 100 nM
EC50 [2]: 150000 to 350000 nM
EC50 [3]: > 100 nM

CC1=C[C@]23C(=O)[C@@H](C=C(CO)[C@@H](O)[C@]2(O)[C@H]1OC(=O)N1c2ccccc2OCC1C)[C@H]1[C@@H](C[C@H]3C)C1(C)C (some centres unmarked) [Compound 739, Ingenol 3-(3-methyl-2,3-dihydro-1,4-benzoxazine-4-carboxylate)]
EC50 [1]: < 20 nM
EC50 [2]: < 150000 nM
EC50 [3]: < 20 nM

COc1ccc(-c2cnn(C)c2C(=O)O[C@H]2C(C)=C[C@]34C(=O)[C@@H](C=C(CO)[C@@H](O)[C@]23O)[C@H]2[C@@H](C[C@H]4C)C2(C)C)cc1 [Compound 554, Ingenol 3-(4-(4-methoxyphenyl)-2-methyl-pyrazole-3-carboxylate)]
EC50 [1]: < 20 nM
EC50 [2]: < 150000 nM
EC50 [3]: < 20 nM

CC1=C[C@]23C(=O)[C@@H](C=C(CO)[C@@H](O)[C@]2(O)[C@H]1OC(=O)c1c(-c2ccccc2)cnn1C)[C@H]1[C@@H](C[C@H]3C)C1(C)C [Compound 557, Ingenol 3-(2-methyl-4-phenyl-pyrazole-3-carboxylate)]
EC50 [1]: < 20 nM
EC50 [2]: < 150000 nM
EC50 [3]: < 20 nM

CC1=C[C@]23C(=O)[C@@H](C=C(CO)[C@@H](O)[C@]2(O)[C@H]1OC(=O)C1=C(C)C(=O)OC12CCCCC2)[C@H]1[C@@H](C[C@H]3C)C1(C)C [Compound 550, Ingenol 3-(2-methyl-3-oxo-4-oxaspiro[4.5]dec-1-ene-1-carboxylate)]
EC50 [1]: < 20 nM
EC50 [2]: < 150000 nM
EC50 [3]: < 20 nM

CC1=C[C@]23C(=O)[C@@H](C=C(CO)[C@@H](O)[C@]2(O)[C@H]1OC(=O)c1cc(C)nn1C(C)(C)C)[C@H]1[C@@H](C[C@H]3C)C1(C)C [Compound 532, Ingenol 3-(2-tert-butyl-5-methyl-pyrazole-3-carboxylate)]
EC50 [1]: < 20 nM
EC50 [2]: < 150000 nM
EC50 [3]: 20 to 100 nM

CC1=C[C@]23C(=O)[C@@H](C=C(CO)[C@@H](O)[C@]2(O)[C@H]1OC(=O)c1[nH]ccc1C)[C@H]1[C@@H](C[C@H]3C)C1(C)C [Compound 584, Ingenol 3-(3-methyl-1H-pyrrole-2-carboxylate)]
EC50 [1]: < 20 nM
EC50 [2]: 150000 to 350000 nM
EC50 [3]: < 20 nM

CC1=C[C@]23C(=O)[C@@H](C=C(CO)[C@@H](O)[C@]2(O)[C@H]1OC(=O)N(C)c1ccccn1)[C@H]1[C@@H](C[C@H]3C)C1(C)C [Compound 724, Ingenol 3-(N-methyl-N-(2-pyridyl)-carbamate)]
EC50 [1]: 20 to 100 nM
EC50 [2]: > 350000 nM

CC1=C[C@]23C(=O)[C@@H](C=C(CO)[C@@H](O)[C@]2(O)[C@H]1OC(=O)NC1CCCCC1)[C@H]1[C@@H](C[C@H]3C)C1(C)C [Compound 710, Ingenol 3-(N-cyclohexyl-carbamate)]
EC50 [1]: 20 to 100 nM
EC50 [3]: < 20 nM

CC1=C[C@]23C(=O)[C@@H](C=C(CO)[C@@H](O)[C@]2(O)[C@H]1OC(=O)c1c(C)nn(C(C)(C)C)c1C)[C@H]1[C@@H](C[C@H]3C)C1(C)C [Compound 551, Ingenol 3-(1-tert-butyl-3,5-dimethyl-pyrazole-4-carboxylate)]
EC50 [1]: < 20 nM
EC50 [3]: < 20 nM

CC1=C[C@]23C(=O)[C@@H](C=C(CO)[C@@H](O)[C@]2(O)[C@H]1OC(=O)N1CCCC1)[C@H]1[C@@H](C[C@H]3C)C1(C)C [Compound 704, Ingenol 3-(pyrrolidine-1-carboxylate)]
EC50 [1]: > 100 nM
EC50 [3]: 20 to 100 nM

CC1=C[C@]23C(=O)[C@@H](C=C(CO)[C@@H](O)[C@]2(O)[C@H]1OC(=O)c1cnnn1-c1ccccc1)[C@H]1[C@@H](C[C@H]3C)C1(C)C [Compound 504, Ingenol 3-(3-phenyltriazole-4-carboxylate)]
EC50 [1]: 20 to 100 nM
EC50 [3]: 20 to 100 nM

CC1=C[C@]23C(=O)[C@@H](C=C(CO)[C@@H](O)[C@]2(O)[C@H]1OC(=O)N(C)Cc1ccccc1)[C@H]1[C@@H](C[C@H]3C)C1(C)C [Compound 708, Ingenol 3-(N-benzyl-N-methyl-carbamate)]
EC50 [1]: < 20 nM
EC50 [3]: 20 to 100 nM

CC1=C[C@]23C(=O)[C@@H](C=C(CO)[C@@H](O)[C@]2(O)[C@H]1OC(=O)c1cn(C)c2ccccc12)[C@H]1[C@@H](C[C@H]3C)C1(C)C [Compound 509, Ingenol 3-(1-methylindole-3-carboxylate)]
EC50 [1]: < 20 nM
EC50 [3]: < 20 nM
